Holding throughout (test): ITC
Holding throughout (type): binding

Test [1] addresses T1, PAS1(23–168); dimerization helix-containing PAS1 of TodS (Pseudomonas putida, UniProt A5W4E3, I114V).
T1 construct: PAS1 sensor domain with dimerization helix, residues 23-168; N-terminal His6 tag kept; E. coli C41(DE3); dimer in solution

The target in test [2] is T2, PAS1(23–168); dimerization helix-containing PAS1 of TodS (Pseudomonas putida, UniProt A5W4E3).
T2 construct: PAS1 sensor domain with dimerization helix, residues 23-168; N-terminal His6 tag kept; E. coli C41(DE3); dimer in solution

The target of test [3] is T3, PAS1(23–168); dimerization helix-containing PAS1 of TodS (Pseudomonas putida, UniProt A5W4E3, W85H).
T3 construct: PAS1 sensor domain with dimerization helix, residues 23-168; N-terminal His6 tag kept; E. coli C41(DE3); dimer in solution

Test [4] addresses T4, PAS1(23–168); dimerization helix-containing PAS1 of TodS (Pseudomonas putida, UniProt A5W4E3, E146A).
T4 construct: PAS1 sensor domain with dimerization helix, residues 23-168; N-terminal His6 tag kept; E. coli C41(DE3); dimer in solution

Test [5] addresses T5, PAS1(23–168); dimerization helix-containing PAS1 of TodS (Pseudomonas putida, UniProt A5W4E3, V59A).
T5 construct: PAS1 sensor domain with dimerization helix, residues 23-168; N-terminal His6 tag kept; E. coli C41(DE3); dimer in solution

Test [6] has as its target T6, PAS1(23–168); dimerization helix-containing PAS1 of TodS (Pseudomonas putida, UniProt A5W4E3, F79Y).
T6 construct: PAS1 sensor domain with dimerization helix, residues 23-168; N-terminal His6 tag kept; E. coli C41(DE3); dimer in solution

Test [7] concerns the target T7, PAS1(23–168); dimerization helix-containing PAS1 of TodS (Pseudomonas putida, UniProt A5W4E3, F46A).
T7 construct: PAS1 sensor domain with dimerization helix, residues 23-168; N-terminal His6 tag kept; E. coli C41(DE3); dimer in solution

As usually defined, the pKd is the negative decadic logarithm of the Kd, by convention in mol/L.

The structures appear in SMILES notation. pKd: −log10 of the molar value.

T2 sequence (A5W4E3 23-168): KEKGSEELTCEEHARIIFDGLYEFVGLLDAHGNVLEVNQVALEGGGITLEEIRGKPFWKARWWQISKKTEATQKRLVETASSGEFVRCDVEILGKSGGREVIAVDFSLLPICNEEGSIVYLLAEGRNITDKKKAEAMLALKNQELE
T1 sequence (A5W4E3 23-168 I114V): as the sequence (A5W4E3 23-168) above, with I92V counted along it
T4 sequence (A5W4E3 23-168, stated change not applied): as the sequence (A5W4E3 23-168) above
T3 sequence (A5W4E3 23-168 W85H): as the sequence (A5W4E3 23-168) above, with W63H counted along it
T5 sequence (A5W4E3 23-168 V59A): as the sequence (A5W4E3 23-168) above, with V37A counted along it
T7 sequence (A5W4E3 23-168 F46A): as the sequence (A5W4E3 23-168) above, with F24A counted along it
T6 sequence (A5W4E3 23-168 F79Y): as the sequence (A5W4E3 23-168) above, with F57Y counted along it

For `Cc1cccc(C)c1` [m-xylene], the negative logarithm of the Kd (pKd) in test [1] is 5.21; in test [2], 5.02.
`Cc1ccccc1` [toluene]: the pKd in test [1] is 5.08; in test [3], 4.97; in test [4] it was 5.02; in test [2], 5.07; in test [5], 4.84; in test [6], 4.15. The compound further gave a pKd in test [7] of 4.02.

For the origin of these results see PMC4861429, “Molecular Insights into Toluene Sensing in the TodS/TodT Signal Transduction System” (The Journal of Biological Chemistry, 2016).
